Results published in US6265537A, “Thiodepsipeptides for combating endoparasites and a method for producing the same” (Bayer Aktiengesellschaft, priority 1997, dated 2001).

Legend:
Haemonchus contortus = assay: In vivo nematode test Haemonchus contortus/sheep; details: sheep infected with Haemonchus contortus; applied orally and/or intravenously as pure active compound; complete cessation of worm egg excretion with the faeces after treatment
Procedure: Haemonchus contortus/Sheep Sheep which had been experimentally infected with Haemonchus contortus were treated after the prepotency time of the parasite had elapsed. The active compounds were applied orally and/or intravenously as pure active compound. The degree of effectiveness is determined by quantitatively counting the worm eggs which have been excreted with the faeces before and after the treatment. A complete cessation of egg excretion after the treatment means that the worms have been aborted or damaged to such an extent that they no longer produce eggs (dosis […]). Active compounds tested and effective dosage rates can be seen from the table which follows

Heterakis spumosa = assay: In vivo nematode test Heterakis spumosa/mouse; details: mice infected with Heterakis spumosa; dosage rate 50 mg/kg, applied orally and/or intraperitoneally on day 46 after infection; adult parasites in colon and caecum counted on day 54, compared with untreated control
Source text: Mice are experimentally infected with nematodes of the variety Heterakis spumosa. In order to infect the mice, 90 embryonate Heterakis spumosa eggs are applied orally.
After the prepotency time had elapsed, the suspended active compounds are applied orally and/or intraperitoneally on the 46th day after the infection.
The mice are selected on the 54th day after the infection. The adult parasites in the colon and caecum are counted with the aid of a microscope. The treatment results in the doses group are compared with the untreated control group.
Active compounds tested and effective dosage rates (dosis effectiva) can be seen from the table which follows.

Compound: CC(C)CC1C(=O)OC(Cc2ccc(N3CCOCC3)cc2)C(=O)N(C)C(CC(C)C)C(=O)OC(C)C(=O)N(C)C(CC(C)C)C(=O)OC(Cc2ccc(N3CCOCC3)cc2)C(=O)N(C)C(CC(C)C)C(=O)OC(C)C(=O)N1C [Cyclo(-MeLeu-D-Lac-MeLeu-D-4-MorPhLac-)2, cyclo(-N-methyl-L-leucyl-D-lactyl-N-methyl-L-leucyl-D-4-N-morpholino-phenyllactyl-N-methyl-L-leucyl-D-lactyl-N-methyl-L-leucyl-D-4-N-morpholinophenyllactyl-), reference compound]
- Effective dosage rates in [mg/kg] (dosis effectiva) (Haemonchus contortus): 0.05 mg/kg

Compound: CC(C)C[C@H]1C(=O)O[C@H](Cc2ccccc2)C(=O)N(C)[C@@H](CC(C)C)C(=O)O[C@H](C)C(=O)N(C)[C@@H](CC(C)C)C(=O)O[C@H](Cc2ccccc2)C(=O)N(C)[C@@H](CC(C)C)C(=O)O[C@H](C)C(=O)N1C [PF 1022A, cyclo(-N-methyl-L-leucyl-D-lactyl-N-methyl-L-leucyl-D-phenyllactyl-N-methyl-L-leucyl-D-lactyl-N-methyl-L-leucyl-D-phenyllactyl-), reference compound]
- Effective dosage rates in [mg/kg] (dosis effectiva) (Haemonchus contortus): 0.25 mg/kg
- Reduction rate in [%] (Heterakis spumosa): 0%

Compound: Cyclo(-N-methyl-L-leucyl-D-thiolactyl-N-melhyl-L-leucyl-D-4-N-morpholinophenylthiiolactyl-N-methyl-L-leucyl-D-thiolactyl-N-methyl-L-leucyl-D-4-N-morpholinophenylthiolactyl-) [Example 3]
- Effective dosage rates in [mg/kg] (dosis effectiva) (Haemonchus contortus): 0.025 mg/kg

Compound: Cyclo(-N-methyl-L-leucyl-D-thiolactyl-N-methyl-L-leucy-D-4-(pyrid-2-yl-methoxy)-phenylthiolactyl-N-methyl-L-leucy-D-thiolactyl-N-methyl-L-leucyl-D-4-(pyrid-2-yl-methoxy)-phenylthiolactyl-) [Example 6]
- Effective dosage rates in [mg/kg] (dosis effectiva) (Haemonchus contortus): 0.01 mg/kg

Compound: Cyclo(-N-methyl-L-leucyl-D-thiolactyl-N-methyl-L-leucyl-D-4-(pyrid-2-yl-methoxy)-phenyllactyl-N-methyl-L-keucyl-D-lactyl-N-methyl-L-leucyl-D-4-(pyrid- 2-yl-methoxy)-phenyllactyl-) [Example 10]
- Effective dosage rates in [mg/kg] (dosis effectiva) (Haemonchus contortus): 0.01 mg/kg

Compound: Cyclo(-N-methyl-L-leucyl-D-thiolactyl-N-methyl-L-leucyl-D-phenylthiolactyl- N-methyl-L-leucyl-D-thiolactyl-N-methyl-L-leucyl-D-phenylthiolactyl-) [Example 1]
- Effective dosage rates in [mg/kg] (dosis effectiva) (Haemonchus contortus): 0.10 mg/kg
- Reduction rate in [%] (Heterakis spumosa): 100%

Compound: Cyclo(N-methyl-L-leucyl-D-thiolactyl-N-methyl-L-leucyl-D4-fur-2-yl-methoxy)-phenyllactyl-N-methyl-L-leucyl-D-lactyl-N-methyl-L-leucyl-D-phenyllactyl-) [Example 12]
- Effective dosage rates in [mg/kg] (dosis effectiva) (Haemonchus contortus): 0.01 mg/kg

Compound: Cyclo(N-methyl-L-leucyl-D-thiolactyl-N-methyl-L-leucyl-D-4-N-morpholinophenyllactyl-N-methyl-L-leucyl-D-lactyl-N-methyl-L-leucyl-D-4-N-morpholinophenyllactyl-) [Example 8]
- Effective dosage rates in [mg/kg] (dosis effectiva) (Haemonchus contortus): 0.01 mg/kg

Compound: Cyclo(N-methyl-L-leucyl-D-thiolactyl-N-methyl-L-leucyl-D-phenyllactyl-N-methyl-L-leucyl-D-lactyl-N-methyl-L-leucyl-D-phenyllactyl-) [Example 7]
- Effective dosage rates in [mg/kg] (dosis effectiva) (Haemonchus contortus): 0.01 mg/kg
